Data reported in patent US8410094B2, “Amide compounds, their pharmaceutical compositions, their preparation method and their uses” (Shanghai Institute of Materia Medica, Chinese Academy of …, priority 2008, dated 2013).

Biological target: T1, CCR5 (Homo sapiens, UniProt P51681)
T1 construct: expressed in transfected cells
Experiment: Inhibition of CCR5: [35S]GTPγS binding assays (filtration, SPA-WGA) and calcium influx assay, 10 nM RANTES, CHO-CCR5
Format: biochemical
Details: for IC50: inhibition of GTPγS binding induced by 10 nM RANTES, CHO-CCR5; for inhibition at 0.03 µM: compound at 30 nM, read-out: inhibition against CCR5 @30 nM; for inhibition at 0.03 µM / inhibition at 0.3 µM: 10 nM RANTES; for inhibition at 0.3 µM: compound at 300 nM, read-out: inhibition against CCR5 @300 nM
Procedure: CCR5 belongs to G-Protein-Coupled Receptor (GPCR) family. The developing technology of GPCR-based drugs have been well-developed, among them, the experimental techniques such as ligand-receptor binding assay, GTPγS binding assay and Ca^2+ flux assay have been widely used in drug-screening related to chemokine receptors. The inhibitory activities of the compounds according to the present invention against CCR5 are measured by three methods, i.e., [^35S]GTPγS filter binding assay, SPA-WGA-based [^35S]GTPγS binding assay and calcium influx assay. At the same time, the antiviral activities in cell of the compounds according to the present invention are evaluated by using two kinds HIV-1 subtypes: H4DA5 cell model and PBMC system virus replication model.
A. [^35S]GTPγS Binding Assay
After binding with an agonist, CCR5 experiences a conformation change such that CCR5 interacts with G protein so as to active the G protein. G protein is a tripolymer composed of α-subunit and βγ-subunit. Since the ability of α-subunit binding to GTP depends on the interaction of CCR5 with the agonist, the ability of an agonist for activating CCR5 can be reflected by determining the amount of GTP binding to α-subunit. In a GTPγS binding assay, a ^35S-labeled GTP analogue GTPγS, which can bind with an activated α-subunit without being hydrolyzed, is used to replace GTP in order for eliminating the defect that the amount of GTP binding to G protein can not exactly reflect the activation of CCR5 due to the hydrolysis of GTO by GTPase and for convenience of detection. So, α-subunit binds with GDP when CCR5 is not activated, and after the activation of CCR5, α-subunit binds with GTPγS such that GTPγS irreversible binds to α-subunit. Therefore, the amount of [^35S]-GTPγS binding to α-subunit could reflect the level of CCR5 activated by an agonist. The ability of the agonist for activating CCR5 will decrease when an antagonist is added.
Such experiment has been referred to as GTPγS filtration assay in which [^35S]-GTPγS bound with the free G protein could be separated by membrane filtration.
Alternatively, SPA (Scintillation Proximity Assay) technique can be used to detect the [^35S]-GTPγS bound to G protein, which is called SPA-WGA-based [35S]GTPγS binding assay. The principle of SPA technique is as follows. Sub-atomic particles released during the decay of radioactive atoms, for example β-ray (electron), can excite microspheres at a sufficiently close distance to emit light so as to be detected by a Scintillation Counter. In an aqueous solution, most of the energy of these rays is absorbed by the solvent, and the traveling distance of these rays is limited.
The activation of G protein by CCR5 is determined by the following experiments.
CHO (Chinese hamster ovary cell) permanent cell line expressing CCR5 (CHO-CCR5) (a cell line constructed by Shanghai Targetdrug Ltd.) was lysed with a lysis buffer (5 mM Tris-HCl, pH 7.5, 5 mM EDTA and 5 mM EGTA) and then centrifugated at 15,000×g for 10 min to obtain cell membrane. After the cell membrane was resuspended in a reaction buffer (5 mM Tris-HCl, pH 7.5, 5 mM MgCl2, 1 mM EGTA, 100 mM NaCl), the protein concentration was determined using Bioford Protein Assay Kit manufactured by Bio-Rad Laboratories Inc. Subsequently, GTPγS binding assay was performed in the reaction buffer, wherein the reaction system was 100 μL containing 10 μg membrane protein, 40 μM GDP and 0.5 nM [^35S]-GTPγS (1200 Ci/mmol). After the compound to be tested (the compound was first dissolved in DMSO and then diluted in gradient with the reaction buffer according to the specific situation, wherein the final concentration of DMSO was 1% (v/v) in the whole reaction system) was added and shaken to mix homogeneously, the reaction tube was incubated at 30° C. for 1 hour. After the reaction finished, the tube was placed on ice, and the reaction mixture was diluted with PBS to quench the reaction and filtered under reduced pressure with a GF/C filter membrane. […]

T1 sequence (P51681 whole entry): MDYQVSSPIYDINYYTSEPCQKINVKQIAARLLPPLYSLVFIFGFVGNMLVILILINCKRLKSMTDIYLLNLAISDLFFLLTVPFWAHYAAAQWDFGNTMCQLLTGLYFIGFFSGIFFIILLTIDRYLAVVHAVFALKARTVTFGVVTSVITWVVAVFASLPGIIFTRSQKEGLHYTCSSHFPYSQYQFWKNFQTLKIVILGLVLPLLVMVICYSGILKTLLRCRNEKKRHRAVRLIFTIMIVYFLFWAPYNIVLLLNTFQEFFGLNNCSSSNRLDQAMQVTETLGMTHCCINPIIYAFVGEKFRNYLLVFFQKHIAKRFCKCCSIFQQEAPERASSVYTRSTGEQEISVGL

Structure (SMILES)	IC50 [nM]	inhibition at 0.03 µM [%]	inhibition at 0.3 µM [%]	other results
CC(=O)N1CCC(C(=O)N(CCCN2[C@@H]3CC[C@H]2C[C@H](NC(=O)Cc2ccc([N+](=O)[O-])c4ccccc24)C3)c2ccc(C)c(Cl)c2)CC1 [Compound 7s, 1-acetyl-N-(3-chloro-4-methylphenyl)-N-(3-(3-exo-(2-(4-nitro-1-naphthyl)acetamido)-8-azabicyclo[3.2.1]oct-8-yl)propyl)-4-piperidinylcarboxamide]	3.34	–	–	–
CC(=O)N1CCC(C(=O)N(CCCN2C3CCC2CC(NC(=O)c2cccnc2)C3)c2ccc(C)c(Cl)c2)CC1 (stereo not drawn) [Compound 7t, 1-acetyl-N-(3-chloro-4-methylphenyl)-N-(3-(3-exo-nicotinamido-8-azabicyclo[3.2.1]oct-8-yl)propyl)-4-piperidinylcarboxamide]	–	3.36	15.6	–
CC(=O)N1CCC(C(=O)N(CCCN2C3CCC2CC(NC(=O)c2ccc(C(F)(F)F)cc2)C3)c2ccc(C)c(Cl)c2)CC1 (stereo not drawn) [Compound 7u, 1-acetyl-N-(3-chloro-4-methylphenyl)-N-(3-(3-exo-p-trifluoromethylbenzoylamido-8-azabicyclo[3.2.1]oct-8-yl)propyl)-4-piperidinylcarboxamide]	–	26.5	96.3	–
CC(=O)N1CCC(C(=O)N(CCCN2C3CCC2CC(NC(=O)CCc2cccnc2)C3)c2ccc(C)c(Cl)c2)CC1 (stereo not drawn) [Compound 7v, 1-acetyl-N-(3-chloro-4-methylphenyl)-N-(3-(3-exo-(3-(3-pyridyl)propionamido)-8-azabicyclo[3.2.1]oct-8-yl)propyl)-4-piperidinylcarboxamide]	–	17.5	76.7	–
CC(=O)N1CCC(C(=O)N(CCCN2[C@@H]3CC[C@H]2C[C@H](NC(=O)COc2ccc4ccccc4c2)C3)c2ccc(C)c(Cl)c2)CC1 [Compound 7w, 1-acetyl-N-(3-chloro-4-methylphenyl)-N-(3-(3-exo-(2-(2-naphthoxy)acetamido)-8-azabicyclo[3.2.1]oct-8-yl)propyl)-4-piperidinylcarboxamide]	18.1	–	–	–
CC(=O)N1CCC(C(=O)N(CCCN2[C@@H]3CC[C@H]2C[C@H](NC(=O)COc2ccc(Cl)cc2)C3)c2ccc(C)c(Cl)c2)CC1 [Compound 7x, 1-acetyl-N-(3-chloro-4-methylphenyl)-N-(3-(3-exo-(2-p-chlorophenoxy)acetamido-8-azabicyclo[3.2.1]oct-8-yl)propyl)-4-piperidinylcarboxamide]	27.3	–	–	–
CC(=O)N1CCC(C(=O)N(CCCN2[C@@H]3CC[C@H]2C[C@H](NC(=O)COc2ccc(Cl)cc2Cl)C3)c2ccc(C)c(Cl)c2)CC1 [Compound 7y, 1-acetyl-N-(3-chloro-4-methylphenyl)-N-(3-(3-exo-(2-(2,4-dichlorophenoxy)acetamido)-8-azabicyclo[3.2.1]oct-8-yl)propyl)-4-piperidinylcarboxamide]	24.6	–	–	–
CNS(=O)(=O)c1ccc(CC(=O)N[C@@H]2C[C@H]3CC[C@@H](C2)N3CCCN(C(=O)C2CCN(C(C)=O)CC2)c2ccc(C)c(Cl)c2)cc1 [Compound 7z, 1-acetyl-N-(3-chloro-4-methylphenyl)-N-(3-(3-exo-(2-(4-(N-methylsulphonyl)phenyl)acetamido)-8-azabicyclo[3.2.1]oct-8-yl)propyl)-4-piperidinylcarboxamide]	17.3	–	–	–
COc1ccc(NC(=O)NC2CC3CCC(C2)N3CCCN(C(=O)C2CCN(C(C)=O)CC2)c2ccc(C)c(Cl)c2)cc1 (stereo not drawn) [Compound 10a, 1-acetyl-N-(3-chloro-4-methylphenyl)-N-(3-(3-exo-(3-(4-methoxylphenyl)ureylene)-8-azabicyclo[3.2.1]oct-8-yl)propyl)-4-piperidinylcarboxamide]	–	–	–	inhibition against CCR5 (class symbol in IC50 column) (class by inhibition at 30 nM or 300 nM): ++ (the compound at 300 nM has an inhibition against CCR5 of more thant 50% at 300 nM)
CC(=O)N1CCC(C(=O)N(CCCN2C3CCC2CC(NC(=O)Nc2ccccc2)C3)c2ccc(C)c(Cl)c2)CC1 (stereo not drawn) [Compound 10c, 1-acetyl-N-(3-(3-(3-phenylureylene)-8-azabicyclo[3.2.1]oct-8-yl)propyl)-N-(3-chloro-4-methylphenyl)-4-piperidinylcarboxamide]	–	33.5	41.9	–
CC(=O)N1CCC(C(=O)N(CCCN2C3CCC2CC(n2c(C)nnc2C(C)C)C3)c2ccc(C)c(Cl)c2)CC1 (stereo not drawn) [Compound 11, 1-acetyl-N-(3-chloro-4-methylphenyl)-N-(3-(3-exo-(3-isopropyl-5-methyl-4-hydro-1,2,4-triazol-4-yl)-8-azabicyclo[3.2.1]oct-8-yl)propyl)-4-piperidinylcarboxamide]	–	48.8	98.4	–
Cc1ccc(S(=O)(=O)NC2CC3CCC(C2)N3CCCN(C(=O)C2CCCCC2)c2ccc(C)c(Cl)c2)cc1 (stereo not drawn) [Compound 15a, N-(3-chloro-4-methylphenyl)-N-(3-(3-exo-(4-tolylsulfonamido)-8-azabicyclo[3.2.1]oct-8-yl)propyl)cyclohexylcarboxamide]	–	45.2	100	–

Now from value to compound, other results behind:

IC50 [nM]	Structure (SMILES)	inhibition at 0.03 µM [%]	inhibition at 0.3 µM [%]	other results
20.1	CC(=O)N1CCC(C(=O)N(CCCN2[C@@H]3CC[C@H]2C[C@H](NS(C)(=O)=O)C3)c2ccc(C)c(Cl)c2)CC1 [Compound 9a, 1-acetyl-N-(3-chloro-4-methylphenyl)-N-(3-(3-exo-(methylsulfonyl amido)-8-azabicyclo[3.2.1]oct-8-yl)propyl)-4-piperidinylcarboxamide]	–	–	–
3.3	CC(=O)N1CCC(C(=O)N(CCCN2[C@@H]3CC[C@H]2C[C@H](NS(=O)(=O)c2ccc([N+](=O)[O-])cc2)C3)c2ccc(C)c(Cl)c2)CC1 [Compound 9c, 1-acetyl-N-(3-chloro-4-methylphenyl)-N-(3-(3-exo-(4-nitrophenylsulfonylamido)-8-azabicyclo[3.2.1]oct-8-yl)propyl)-4-piperidinylcarboxamide]	–	–	–
2.59	CC(=O)N1CCC(C(=O)N(CCCN2[C@@H]3CC[C@H]2C[C@H](NS(=O)(=O)c2cccc([N+](=O)[O-])c2)C3)c2ccc(C)c(Cl)c2)CC1 [Compound 9d, 1-acetyl-N-(3-chloro-4-methylphenyl)-N-(3-(3-exo-(3-nitrophenylsulfamide)-8-azabicyclo[3.2.1]oct-8-yl)propyl)-4-piperidinylcarboxamide]	–	–	–
7.4	CC(=O)N1CCC(C(=O)N(CCCN2[C@@H]3CC[C@H]2C[C@H](NS(=O)(=O)Cc2ccccc2)C3)c2ccc(C)c(Cl)c2)CC1 [Compound 9e, 1-acetyl-N-(3-chloro-4-methylphenyl)-N-(3-(3-exo-(phenylmethylsulfonylamido)-8-azabicyclo[3.2.1]oct-8-yl)propyl)-4-piperidinylcarboxamide]	–	–	–
2.53	CC(=O)N1CCC(C(=O)N(CCCN2[C@@H]3CC[C@H]2C[C@H](NS(=O)(=O)c2cccs2)C3)c2ccc(C)c(Cl)c2)CC1 [Compound 9f, 1-acetyl-N-(3-chloro-4-methylphenyl)-N-(3-(3-exo-(thienyl-2-sulfonylamido)-8-azabicyclo[3.2.1]oct-8-yl)propyl)-4-piperidinylcarboxamide]	–	–	–
28.7	CC(=O)N1CCC(C(=O)N(CCCN2C3CCC2CC(NC(=O)Nc2ccc(Cl)c(C(F)(F)F)c2)C3)c2ccc(C)c(Cl)c2)CC1 (stereo not drawn) [Compound 10b, 1-acetyl-N-(3-(3-(3-(4-chloro-3-(trifluoromethyl)phenyl)ureylene)-8-azabicyclo[3.2.1]oct-8-yl)propyl)-N-(3-chloro-4-methylphenyl)-4-piperidinylcarboxamide]	–	–	–
